Experimental data from ChEMBL document CHEMBL1155335, “Studies towards topical selective beta2-adrenoceptor agonists with a long duration of action” (Bioorg Med Chem Lett, 2009).
Active and inactive are the calls of the source. The calls are words filed in the database; no cut-off is given here.

Tests used:
[1] = molecular target: Beta-1 adrenergic receptor (Homo sapiens, UniProt P08588)
Description: Agonist activity at human beta-1 adrenoceptor expressed in CHOK1 cell assessed as increase of intracellular cAMP level

Homo sapiens = species on record: Homo sapiens; experiment: Selectivity ratio, EC50 for human beta-1 adrenoceptor to EC50 for human beta2 adrenoceptor
[2] = molecular target: Beta-2 adrenergic receptor (Homo sapiens, UniProt P07550)
Chain of Beta-2 adrenergic receptor (P07550 whole entry): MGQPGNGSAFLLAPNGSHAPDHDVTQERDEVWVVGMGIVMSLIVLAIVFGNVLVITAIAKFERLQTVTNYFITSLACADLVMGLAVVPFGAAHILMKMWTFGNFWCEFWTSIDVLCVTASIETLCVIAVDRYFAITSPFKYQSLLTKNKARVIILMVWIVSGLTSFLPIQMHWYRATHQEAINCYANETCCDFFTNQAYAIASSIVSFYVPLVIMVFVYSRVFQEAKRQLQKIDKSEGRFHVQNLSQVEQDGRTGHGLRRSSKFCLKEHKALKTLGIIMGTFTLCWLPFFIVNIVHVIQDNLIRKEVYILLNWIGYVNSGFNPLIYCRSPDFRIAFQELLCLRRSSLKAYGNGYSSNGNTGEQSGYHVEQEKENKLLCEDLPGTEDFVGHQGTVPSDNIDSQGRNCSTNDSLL
Description: Agonist activity at human beta2 adrenoceptor expressed in CHOK1 cell assessed as increase of intracellular cAMP level

Cavia porcellus [3] = experiment: Bronchoprotective activity in intratracheally dosed guinea pig assessed as inhibition of acetylcholine-induced increase in pulmonary resistance after 5 hrs; format: functional, organism-based
Cavia porcellus [4] = experiment: Toxicity in guinea pig assessed as increase in heart rate at 3 ug/kg, intratracheally after 90 mins; format: organism-based; details: in vivo, inhaled_or_intranasal, 0.003 mg/kg, 1.5 h
Cavia porcellus [5] = experiment: Toxicity in intratracheally dosed guinea pig assessed as increase in heart rate after 10 to 20 mins; format: organism-based; details: in vivo, inhaled_or_intranasal
Cavia porcellus [6] = experiment: Bronchoprotective activity in guinea pig assessed as inhibition of acetylcholine-induced increase in pulmonary resistance at 10 ug/kg, intratracheally after 5 hrs; format: functional; parameters: scale not given: the % may be the effect or the level left
Cavia porcellus [7] = experiment: Toxicity in guinea pig assessed as increase in heart rate at 10 ug/kg, intratracheally after 90 mins; format: organism-based; details: in vivo, inhaled_or_intranasal, 0.01 mg/kg, 1.5 h
Cavia porcellus [8] = experiment: Bronchoprotective activity in guinea pig assessed as inhibition of acetylcholine-induced increase in pulmonary resistance at 3 ug/kg, intratracheally after 5 hrs; format: functional, organism-based

Chain of Beta-1 adrenergic receptor (P08588 whole entry): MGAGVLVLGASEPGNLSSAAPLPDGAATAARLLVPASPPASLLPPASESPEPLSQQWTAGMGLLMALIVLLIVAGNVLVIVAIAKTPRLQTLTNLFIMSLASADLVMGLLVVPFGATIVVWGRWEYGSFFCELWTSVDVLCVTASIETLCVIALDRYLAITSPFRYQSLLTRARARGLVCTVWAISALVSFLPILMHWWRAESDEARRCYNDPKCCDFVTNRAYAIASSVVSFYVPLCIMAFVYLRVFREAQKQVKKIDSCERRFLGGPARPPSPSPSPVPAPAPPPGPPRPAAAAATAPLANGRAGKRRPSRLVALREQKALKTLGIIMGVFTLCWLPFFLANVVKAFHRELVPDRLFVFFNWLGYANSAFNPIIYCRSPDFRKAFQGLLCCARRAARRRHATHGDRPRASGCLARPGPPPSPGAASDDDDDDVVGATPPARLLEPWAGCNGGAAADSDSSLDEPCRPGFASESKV

EC50 [1] | Ratio EC50 (Homo sapiens) | EC50 [2] | Structure (SMILES) | Activity (Cavia porcellus [3]) | Activity (Cavia porcellus [4]) | Activity (Cavia porcellus [5]) | Activity (Cavia porcellus [6]) | Activity (Cavia porcellus [7]) | Activity (Cavia porcellus [8])
3.5 nM | 3.5 | 1 nM | CC(C)(Cc1ccc(NC(=O)CCCNC(=O)C[N+](C)(C)C)cc1)NCC(O)c1ccc(O)c2c1OCC(=O)N2 (centres undefined) |  |  |  |  |  | 
3.4 nM | 3.1 | 1.1 nM | CC(C)(Cc1ccc(NC(=O)CCCN)cc1)NCC(O)c1ccc(O)c2c1OCC(=O)N2 (centres undefined) |  |  |  |  |  | 
9.9 nM | 5.5 | 1.8 nM | CC(C)(Cc1ccc(NC(=O)CCCNCCCS(=O)(=O)O)cc1)NCC(O)c1ccc(O)c2c1OCC(=O)N2 (centres undefined) | Dose-dependent effect | Active | Toxic |  |  | 
18 nM |  | 4.1 nM | CC(C)(Cc1ccc(NC(=O)CCCN=C(N)N)cc1)NCC(O)c1cc(O)cc2c1OCC(=O)N2 (centres undefined) |  |  |  |  |  | 
 | 4.4 |  | CC(C)(Cc1ccc(NC(=O)CCCNC(=N)N)cc1)NCC(O)c1cc(O)cc2c1OCC(=O)N2 (centres undefined) |  |  |  |  |  | 
1.8 nM | 1.8 | 1 nM | CC(C)(Cc1ccc(NC(=O)CCCNC(=N)N)cc1)NCC(O)c1ccc(O)c2c1OCC(=O)N2 (centres undefined) | Dose-dependent effect |  | Toxic | 100% | > 10% | Active
28 nM | 2.4 | 11.6 nM | CC(C)(Cc1ccc(NC(=O)CCCNC(=O)C[N+](C)(C)C)cc1)NCC(O)c1cc(O)cc2c1OCC(=O)N2 (centres undefined) |  |  |  |  |  | 
24 nM | 4.4 | 5.4 nM | CC(C)(Cc1ccc(NC(=O)CCCNC(=O)C(N)CCCN)cc1)NCC(O)c1ccc(O)c2c1OCC(=O)N2 (centres undefined) | Dose-dependent effect |  | Toxic | 100% | > 10% | Active
4.6 nM | 5.1 | 0.9 nM | CC(C)(Cc1ccc(NC(=O)CCCNC(=O)CCN)cc1)NCC(O)c1ccc(O)c2c1OCC(=O)N2 (centres undefined) |  |  |  |  |  | 
11 nM | 1.2 | 9 nM | CC(C)(Cc1ccc(NC(=O)CCCN)cc1)NCC(O)c1cc(O)cc2c1OCC(=O)N2 (centres undefined) |  |  |  |  |  | 
4.5 nM | 3.8 | 1.2 nM | CC(C)(Cc1ccc(NC(=O)CCCNC(=O)CN)cc1)NCC(O)c1ccc(O)c2c1OCC(=O)N2 (centres undefined) | Dose-dependent effect |  | Toxic | 100% | > 10% | Active
5.3 nM | 10.6 | 0.5 nM | CN(C)CC(=O)NCCCC(=O)Nc1ccc(CC(C)(C)NCC(O)c2ccc(O)c3c2OCC(=O)N3)cc1 (centres undefined) |  |  |  |  |  | 

Structure (SMILES) | EC50 [1] | Ratio EC50 (Homo sapiens) | EC50 [2] | Activity (Cavia porcellus [3]) | Activity (Cavia porcellus [4]) | Activity (Cavia porcellus [5]) | Activity (Cavia porcellus [6]) | Activity (Cavia porcellus [7]) | Activity (Cavia porcellus [8])
CN1CCN(CC(=O)NCCCC(=O)Nc2ccc(CC(C)(C)NCC(O)c3ccc(O)c4c3OCC(=O)N4)cc2)CC1 (centres undefined) | 5.7 nM | 4.8 | 1.2 nM |  |  |  |  |  | 
